Experiment in all cases: ITC
What all share (details): 50 mM KCl, 5 mM MgCl2 (RNA wash buffer); 50 mM Bis-Tris pH 6.1; individual ITC conditions in SI Figures S11/S12

Test [1] deals with pilM^75 (RNA, riboswitch) GAUAUCGACAAUACUAAACCAUCCGCGAGGGUGGGACGGAAAGCCUACAGGGUCUCUCUGAGACAGCCGGGAUGC
The test system of test [2] is pilM^83 (RNA, riboswitch) GAUAUCGACAAUACUAAACCAUCCGCGAGGGUGGGACGGAAAGCCUACAGGGUCUCUCUGAGACAGCCGGGAUGCCGAAAUAU
Test [3] concerns pilM^109 (RNA, riboswitch) GAUAUCGACAAUACUAAACCAUCCGCGAGGGUGGGACGGAAAGCCUACAGGGUCUCUCUGAGACAGCCGGGAUGCCGAAAUAUCACAAUUCGUGAUGCUCGGUCCCGGC
In test [4] the test system is pilM^97 (RNA, riboswitch) GAUAUCGACAAUACUAAACCAUCCGCGAGGGUGGGACGGAAAGCCUACAGGGUCUCUCUGAGACAGCCGGGAUGCCGAAAUAUCACAAUUCGUGAUG
Test [5] deals with pilM^96 (RNA, riboswitch) GAUAUCGACAAUACUAAACCAUCCGCGAGGGUGGGACGGAAAGCCUACAGGGUCUCUCUGAGACAGCCGGGAUGCCGAAAUAUCACAAUUCGUGAU
The test system of test [6] is pilM^14-75 (RNA, riboswitch) GCUAAACCAUCCGCGAGGGUGGGACGGAAAGCCUACAGGGUCUCUCUGAGACAGCCGGGAUGC
The test system of test [7] is pilM^79 (RNA, riboswitch) GAUAUCGACAAUACUAAACCAUCCGCGAGGGUGGGACGGAAAGCCUACAGGGUCUCUCUGAGACAGCCGGGAUGCCGAA
Test [8] deals with pilM^105 (RNA, riboswitch) GAUAUCGACAAUACUAAACCAUCCGCGAGGGUGGGACGGAAAGCCUACAGGGUCUCUCUGAGACAGCCGGGAUGCCGAAAUAUCACAAUUCGUGAUGCUCGGUCC
Test [9] has as its system pilM^102 (RNA, riboswitch) GAUAUCGACAAUACUAAACCAUCCGCGAGGGUGGGACGGAAAGCCUACAGGGUCUCUCUGAGACAGCCGGGAUGCCGAAAUAUCACAAUUCGUGAUGCUCGG
For test [10], the system named is pilM^80 (RNA, riboswitch) GAUAUCGACAAUACUAAACCAUCCGCGAGGGUGGGACGGAAAGCCUACAGGGUCUCUCUGAGACAGCCGGGAUGCCGAAA
The subject of test [11] is pilM^91 (RNA, riboswitch) GAUAUCGACAAUACUAAACCAUCCGCGAGGGUGGGACGGAAAGCCUACAGGGUCUCUCUGAGACAGCCGGGAUGCCGAAAUAUCACAAUUC
The subject of test [12] is pilM^88 (RNA, riboswitch) GAUAUCGACAAUACUAAACCAUCCGCGAGGGUGGGACGGAAAGCCUACAGGGUCUCUCUGAGACAGCCGGGAUGCCGAAAUAUCACAA
For test [13], the system named is pilM^77 (RNA, riboswitch) GAUAUCGACAAUACUAAACCAUCCGCGAGGGUGGGACGGAAAGCCUACAGGGUCUCUCUGAGACAGCCGGGAUGCCG
Test [14] deals with pilM^99 (RNA, riboswitch) GAUAUCGACAAUACUAAACCAUCCGCGAGGGUGGGACGGAAAGCCUACAGGGUCUCUCUGAGACAGCCGGGAUGCCGAAAUAUCACAAUUCGUGAUGCU
Test [15] concerns pilM^82 (RNA, riboswitch) GAUAUCGACAAUACUAAACCAUCCGCGAGGGUGGGACGGAAAGCCUACAGGGUCUCUCUGAGACAGCCGGGAUGCCGAAAUA
The test system of test [16] is pilM^95 (RNA, riboswitch) GAUAUCGACAAUACUAAACCAUCCGCGAGGGUGGGACGGAAAGCCUACAGGGUCUCUCUGAGACAGCCGGGAUGCCGAAAUAUCACAAUUCGUGA
In test [17] the test system is pilM^106 (RNA, riboswitch) GAUAUCGACAAUACUAAACCAUCCGCGAGGGUGGGACGGAAAGCCUACAGGGUCUCUCUGAGACAGCCGGGAUGCCGAAAUAUCACAAUUCGUGAUGCUCGGUCCC
Test [18] deals with pilM^93 (RNA, riboswitch) GAUAUCGACAAUACUAAACCAUCCGCGAGGGUGGGACGGAAAGCCUACAGGGUCUCUCUGAGACAGCCGGGAUGCCGAAAUAUCACAAUUCGU
The subject of test [19] is pilM^101 (RNA, riboswitch) GAUAUCGACAAUACUAAACCAUCCGCGAGGGUGGGACGGAAAGCCUACAGGGUCUCUCUGAGACAGCCGGGAUGCCGAAAUAUCACAAUUCGUGAUGCUCG
Test [20] deals with pilM^84 (RNA, riboswitch) GAUAUCGACAAUACUAAACCAUCCGCGAGGGUGGGACGGAAAGCCUACAGGGUCUCUCUGAGACAGCCGGGAUGCCGAAAUAUC
For test [21], the system named is pilM^100 (RNA, riboswitch) GAUAUCGACAAUACUAAACCAUCCGCGAGGGUGGGACGGAAAGCCUACAGGGUCUCUCUGAGACAGCCGGGAUGCCGAAAUAUCACAAUUCGUGAUGCUC
The subject of test [22] is pilM^103 (RNA, riboswitch) GAUAUCGACAAUACUAAACCAUCCGCGAGGGUGGGACGGAAAGCCUACAGGGUCUCUCUGAGACAGCCGGGAUGCCGAAAUAUCACAAUUCGUGAUGCUCGGU

Where only a bound is given, the exact number is not on record here.

Among the data in publication PMC9262584 (2022) are KD values, retold here.

`Nc1nc2c(ncn2[C@@H]2O[C@@H]3COP(=O)(O)O[C@H]4[C@@H](O)[C@H](n5cnc6c(N)ncnc65)O[C@@H]4COP(=O)(O)O[C@H]3[C@H]2O)c(=O)[nH]1`: the KD (as a rule, the constant that tells how readily two partners part at equilibrium) is > >100 μM in [1]; 0.00167 ± 9e-05 mM in test [2]; > >100 μM in test [3]; 0.0016 ± 0.0007 mM in test [4]; 0.0029 ± 0.0015 mM in test [5]; 0.012 ± 0.005 mM in test [6]. Further, the equilibrium dissociation constant (KD) was 0.017 ± 0.011 mM in test [7]; > >100 μM in test [8]; > >100 μM in test [9]; 0.0085 ± 0.0014 mM in test [10]; 0.00032 ± 5e-05 mM in test [11]; 0.00025 ± 4e-05 mM in test [12]. Also, the dissociation constant KD was 0.019 ± 0.019 mM in [13]; 0.00025 ± 4e-05 mM in test [14]; 0.00212 ± 0.00017 mM in test [15]; 0.0016 ± 0.0006 mM in test [16]; > >100 μM in test [17]; 0.00038 ± 6e-05 mM in [18]. In addition, the KD was 0.0013 ± 0.0005 mM in test [19], 0.00044 ± 6e-05 mM in test [20], 0.0005 ± 0.0003 mM in test [21] and > >100 μM in test [22].
